Here are results for 8 molecules from paper PMC3557602 (Analytical biochemistry, 2012).

“Also recorded” adds a separate entry of the source. Counter-ions that a name gives are not always drawn. Where only a bound is given, the exact number is not on record here.

The target in series [1] is T1, Nterm-phos activity of human sEH (Homo sapiens, UniProt P34913).
T1 sequence (P34913 1-555): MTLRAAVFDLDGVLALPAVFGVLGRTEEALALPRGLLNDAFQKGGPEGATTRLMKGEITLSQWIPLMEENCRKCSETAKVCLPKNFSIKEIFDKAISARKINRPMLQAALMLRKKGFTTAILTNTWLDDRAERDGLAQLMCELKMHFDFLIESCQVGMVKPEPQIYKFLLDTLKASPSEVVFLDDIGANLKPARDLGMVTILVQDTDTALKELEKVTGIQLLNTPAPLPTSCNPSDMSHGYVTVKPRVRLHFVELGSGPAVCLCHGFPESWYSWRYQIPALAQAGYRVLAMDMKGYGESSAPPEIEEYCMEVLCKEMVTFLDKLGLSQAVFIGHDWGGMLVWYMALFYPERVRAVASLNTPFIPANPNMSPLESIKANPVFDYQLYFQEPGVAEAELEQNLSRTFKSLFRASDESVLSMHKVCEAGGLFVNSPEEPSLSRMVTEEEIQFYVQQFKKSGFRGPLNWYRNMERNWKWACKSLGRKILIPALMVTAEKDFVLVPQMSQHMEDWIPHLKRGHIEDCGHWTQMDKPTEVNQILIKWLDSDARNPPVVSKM
The series can be described thus: AttoPhos fluorescent endpoint HTS assay for sEH phosphatase activity. The series is classed as biochemical. The note with it: for Nominal Inhibition (%): [E] 2.1 nM, AttoPhos 25 μM, 60 min, 96-well; for inhibition of Nterm-phos in library screen: pesticide library; for inhibition at 10 µM: read-out: inhibition of Nterm-phos in library screen.

Series [2] has as its target T1, Nterm-phos activity of human sEH. The series can be described thus: AttoPhos assay in kinetic mode. The series is classed as biochemical.
The target in the next series is T2, Cterm-EH expressed alone (Homo sapiens, UniProt P34913).
T2 sequence (P34913 235-555 limits assumed): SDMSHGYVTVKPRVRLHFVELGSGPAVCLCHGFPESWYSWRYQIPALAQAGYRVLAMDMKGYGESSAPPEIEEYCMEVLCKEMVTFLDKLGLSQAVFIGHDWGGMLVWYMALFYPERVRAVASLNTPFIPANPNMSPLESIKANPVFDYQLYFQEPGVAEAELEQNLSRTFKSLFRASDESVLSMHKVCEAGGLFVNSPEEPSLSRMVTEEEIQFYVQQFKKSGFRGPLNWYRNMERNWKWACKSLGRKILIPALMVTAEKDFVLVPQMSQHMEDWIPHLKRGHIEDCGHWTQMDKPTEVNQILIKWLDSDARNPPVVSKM
Kind of series: Inhibition of the C-terminal domain expressed separately. The format is biochemical. The conditions noted are these: 10 μM for 5 min.

For a further series, the target named is T3, human microsomal EH (Homo sapiens, UniProt P07099).
T3 sequence (P07099 1-455): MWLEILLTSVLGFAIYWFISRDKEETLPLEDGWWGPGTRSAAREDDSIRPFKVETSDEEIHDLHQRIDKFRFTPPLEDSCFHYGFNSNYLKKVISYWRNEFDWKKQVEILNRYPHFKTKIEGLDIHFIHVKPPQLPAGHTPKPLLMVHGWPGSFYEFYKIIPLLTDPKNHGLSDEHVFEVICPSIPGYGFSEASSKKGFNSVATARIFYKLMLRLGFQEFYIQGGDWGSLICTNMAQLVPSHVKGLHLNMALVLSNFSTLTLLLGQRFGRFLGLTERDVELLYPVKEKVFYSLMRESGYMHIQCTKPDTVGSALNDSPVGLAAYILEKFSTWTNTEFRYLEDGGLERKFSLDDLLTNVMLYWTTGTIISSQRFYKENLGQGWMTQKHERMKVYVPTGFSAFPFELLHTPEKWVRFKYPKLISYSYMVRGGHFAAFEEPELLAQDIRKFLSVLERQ
Kind of series: Selectivity: microsomal EH inhibition. The format is biochemical.

Series [3] has as its target T1, Nterm-phos activity of human sEH. Kind of series: Kinetic constants with a model of irreversible inhibition, AttoPhos 25 μM. The format is biochemical.
Series [4] has as its target T4, Cterm-EH activity of human sEH (Homo sapiens, UniProt P34913).
T4 sequence (P34913 1-555): T1 sequence (P34913 1-555)
The series can be described thus: Kinetic constants with a model of irreversible inhibition, PHOME 50 μM. The series is classed as biochemical. The conditions noted are these: n = 3.

In series [5] the target is T4, Cterm-EH activity of human sEH. Kind of series: Inhibition of sEH epoxide hydrolase activity. The note with it: for IC50: IC50 for Cterm-EH. The format is biochemical.
In series [6] the target is T1, Nterm-phos activity of human sEH. The series can be described thus: Reversibility. The format is biochemical.
Series [7] deals with a series of esterases and amidases. Kind of series: Selectivity: esterases and amidases inhibition. The format is biochemical.
The target in series [8] is T5, Nterm-phos expressed alone (Homo sapiens, UniProt P34913).
T5 sequence (P34913 1-224 limits assumed): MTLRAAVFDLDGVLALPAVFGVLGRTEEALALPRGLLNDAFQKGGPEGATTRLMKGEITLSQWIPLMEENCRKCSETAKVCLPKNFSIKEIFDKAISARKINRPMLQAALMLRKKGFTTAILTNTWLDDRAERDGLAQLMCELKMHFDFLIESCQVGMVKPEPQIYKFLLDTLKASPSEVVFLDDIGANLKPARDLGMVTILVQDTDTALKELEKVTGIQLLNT
Kind of series: Inhibition of the N-terminal domain expressed separately. The series is classed as biochemical. The note with it: 10 μM for 5 min.

The target of series [9] is T4, Cterm-EH activity of human sEH. Kind of series: Reversibility. The series is classed as biochemical.
Series [10] concerns human alkaline phosphatase. Kind of series: Selectivity: alkaline phosphatase inhibition. The format is biochemical.
The conditions of series [11]: cited from earlier work.
[12] abbreviates: read-out: IC50 (nominal inhibition column), nominal / overall value.
The mark [13] stands for this setting: read-out: IC50 Day 1, Day 1, 3 plates.
[14] abbreviates: read-out: IC50 Day 2, Day 2, 3 plates.
[15] abbreviates: read-out: IC50 Day 3, Day 3, 3 plates.
Where [16] appears, read: 20 nM human sEH with 10 μM for 15 min, then dialysis.
The mark [17] stands for this setting: 5 mM glutathione before 10 μM for 5 min.

Broadly, the IC50 is the midpoint of a concentration-inhibition curve. Consider `CCCCCCCCCCCCS(=O)(=O)O` [C00002, dodecyl sulfonate], for which the “Nominal Inhibition (%)” value in [1] ([I] 1.6 μM) is 9 ± 6%; in series [1] ([I] 3.1 μM), 26 ± 4%; in series [1] ([I] 6.3 μM) it was 54 ± 4%; in [1] ([I] 12.5 μM), 78 ± 3%; in series [1] ([I] 25 μM), 89 ± 1%. In addition, the IC50 in series [1] (setting [12]) came to 6600 ± 800 nM; in series [1] (setting [13]) it was 6300 ± 300 nM; in series [1] (setting [14]), 6100 ± 300 nM; in series [1] (setting [15]), 7500 ± 1200 nM.
In the case of `CCCCCCCCCCCCOP(=O)(O)O` [C00003, dodecyl phosphoric acid], the “inhibition of Nterm-phos in library screen” value in series [1] (1 μM) and in [1] (10 μM) was “more than 50%” in each case. The “Nominal Inhibition (%)” value in series [1] ([I] 0.8 μM) was determined as 19 ± 4%; in series [1] ([I] 1.6 μM), 39 ± 5%; in series [1] ([I] 3.1 μM), 70 ± 3%; in [1] ([I] 6.3 μM), 91 ± 1%; in series [1] ([I] 12.5 μM) it was 98 ± 1%. The IC50 in series [1] (setting [12]) is 2200 ± 300 nM; in [1] (setting [13]), 1800 ± 200 nM; in series [1] (setting [14]), 2300 ± 200 nM; in series [1] (setting [15]), 2400 ± 100 nM.
In general, inhibition refers to the share of the control response that was lost under treatment. As to `O=C1c2ccccc2C(=O)N1SC(Cl)(Cl)Cl` [Folpet], in series [1], the inhibition at 10 µM was above 50%. In [2], this molecule registered an IC50 of 25000 ± 3000 nM.
The like results for `S=C(S)NCCNC(=S)S` [Nabam] were, in that order, above 50% and above 100000 nM.
Consider `O=c1c2ccccc2[se]n1-c1ccccc1` [ebselen], for which the “inhibition of Cterm-EH expressed alone” value against Cterm-EH expressed alone is recorded as “did not significantly inhibit”. The “inhibition of human microsomal EH” value against human microsomal EH was “not the other enzymes tested”. The molecule also gave a Ki in series [3] of 550 nM. Also, the “ratio of ki, Nterm-phos over Cterm-EH” value in [3] is listed as “around 7 fold”. In series [3] (n = 3), the “first-order formation rate of the covalent enzyme-inhibitor complex (ki), Nterm-phos” value came to 2.58 ± 0.05 min⁻¹. In addition, in series [4], the “first-order formation rate of the covalent enzyme-inhibitor complex (ki), Cterm-EH” value came out at 0.39 ± 0.07 min⁻¹. In series [5], the “IC50 ratio Cterm-EH over Nterm-phos” value is listed as 5 fold. Moreover, the IC50 in [5] (incubation time 1 min) stood at 2000 ± 300 nM; in series [5] (incubation time 15 min), 850 ± 50 nM; in [2], 400 ± 20 nM. The “time to stable inhibition of Nterm-phos” value in [6] is listed as “less than a minute”. In addition, in [6] (setting [16]), the “recovery of Nterm-phos activity after dialysis” value was “not able to recover any”. Moreover, in series [6] (setting [17]), the “effect of glutathione pretreatment on Nterm-phos activity” value is “protected”. The “inhibition of esterases and amidases” value in series [7] is “not the other enzymes tested”. The “inhibition of Nterm-phos expressed alone” value in [8] is “totally inhibited”. Further, in [9] (setting [16]), the “recovery of Cterm EH activity after dialysis” value is given as “not able to recover any”. Further, the “effect of glutathione pretreatment on Cterm-EH activity” value in [9] (setting [17]) is given as “protected”. Also, in series [9] (glutathione added 5 min after exposure), the “Cterm-EH activity recovered on glutathione added after exposure” value is on record as 30%. Moreover, the “inhibition of human alkaline phosphatase” value in series [10] is “did not inhibit; also recorded: not the other enzymes tested”.
For the molecule `CC(=O)N1CCN(c2ccc(OCC3COC(Cn4ccnc4)(c4ccc(Cl)cc4Cl)O3)cc2)CC1` (stereo not shown) [ketoconazole], in series [2], the IC50 was above 100000 nM.
`O=C(O)c1ccccc1C(=O)Nc1ccc(S(=O)(=O)Nc2nccs2)cc1` [phthalyl-sulfathiazole] showed an IC50 in series [2] above 100000 nM.
As to `CCCCC(CC)CCC(CC(C)C)OS(=O)(=O)O` (stereo not shown) [sodium tetradecyl sulfate], in [11], the critical micelle concentration result was “around 2 mM”.
